Experimental data published in patent US9232796B2, “Herbicidal compositions comprising 4-amino-3-chloro-5-fluoro-6-(4-chloro-2-fluoro-3-methoxyphenyl) pyridine-2-carboxylic acid or a derivative thereof and acetyl-CoA carboxylase (ACCase) inhibitors” (DOW AGROSCIENCES LLC, priority 2012, dated 2016).

Key:
[1] = test system: FIMMI; assay: Example V post-emergence field trials in direct-seeded rice; format: in vivo, Fimbristylis miliacea; conditions: foliar, field trial Tolima, Colombia
Method: Multiple field trials were conducted under commercial grower field conditions in Tolima, Colombia; Thessaloniki, Greece; Bianze and Copiano, Italy; and Humphrey, Ark., USA. Trials sites were located in commercially grown fields of direct-seeded rice (Oryza sativa) using standard herbicide small plot research methodology. Plots varied from 2 to 3 meter (m)×5 to 8 m (width×length) with 4 replicates per treatment. The rice crop was grown using normal cultural practices for fertilization, seeding, watering, flooding and maintenance to ensure good growth of the crop and the weeds.
All treatments in the field trials were applied using a backpack compressed air/gas sprayer with flat fan nozzles (80° or 110°) calibrated to apply 187 to 300 L/ha spray volume at approximately 200-400 kPa nozzle pressure. Commercially available products of cyhalofop-butyl (Clincher 180EC, Clincher 200EC, and Clincher SF (285 gr ai/L EC)) were mixed in water at appropriate formulated product rates to achieve the desired rates based on a unit area of application (hectare) to achieve the desired rates as shown. Treatments were rate at 19 to 58 days after application (DAA) as compared to the untreated control plants. Visual weed control was scored on a scale of 0 to 100 percent where 0 corresponds to no injury and 100 corresponds to complete kill. […]

[2] = test system: SCPJU; assay: Example VI in-water applied ternary mixtures, greenhouse, transplanted paddy rice weeds; format: in vivo, Schoenoplectus juncoides (Roxb.) Palla
Method: Weed seeds or nutlets of the desired test plant species were planted in puddled soil (mud) prepared by mixing a shredded, non-sterilized mineral soil (50.5 percent silt, 25.5 percent clay, and 24 percent sand, with a pH of about 7.6 and an organic matter content of about 2.9 percent) and water at a 1:1 volumetric ratio. The prepared mud was dispensed in 365 mL aliquots into 16-ounce (oz.) non-perforated plastic pots with a surface area of 86.59 square centimeters (cm^2) leaving a headspace of 3 centimeters (cm) in each pot. Mud was allowed to dry overnight prior to planting or transplanting. Rice seeds were planted in Sun Gro MetroMix® 306 planting mixture, which typically has a pH of 6.0 to 6.8 and an organic matter content of about 30 percent, in plastic plug trays. Seedlings at the second or third leaf stage of growth were transplanted into 860 mL of mud contained in 32-oz. non-perforated plastic pots with a surface area of 86.59 cm^2 4 days prior to herbicide application. The paddy was created by filling the headspace of the pots with 2.5 to 3 cm of water. When required to ensure good germination and healthy plants, a fungicide treatment and/or other chemical or physical treatment was applied. The plants were grown for 4-22 days in a greenhouse with an approximate 14 hr. photoperiod which was maintained at about 29° C. during the day and 26° C. during the night. Nutrients were added as Osmocote® (19:6:12, N:P:K+minor nutrients) at 2 g per 16-oz. pot and 4 g per 32-oz. pot. Water was added on a regular basis to maintain the paddy flood, and supplemental lighting was provided with overhead metal halide 1000-Watt lamps as necessary. The plants were employed for testing when they reached the first through fourth true leaf stage.
Treatments consisted of the benzyl ester of 4-amino-3-chloro-5-fluoro-6-(4-chloro-2-fluoro-3-methoxy-phenyl)pyridine-2-carboxylic acid (Compound A), formulated as an SC (suspension concentrate), an ACCase inhibitor herbicide, and a third herbicidal component, each applied alone and in ternary combination. Forms of compound A were applied on an acid equivalent basis.
The ACCase inhibitor component was applied on an active ingredient basis and included cyhalofop-R-butyl formulated as Clincher® G and metamifop formulated as Metamifop EC. […]
Treatment requirements for each compound or herbicidal component were calculated based upon the rates being tested, the concentration of active ingredient or acid equivalent in the formulation, an application volume of 1 mL per component per pot, and an application area of 86.59 cm^2 per pot.
For formulated compounds, a measured amount was placed in an individual 100 or 200 mL glass vial and was dissolved in a volume of 1.25% (v/v) Agri-Dex® crop oil concentrate to obtain application solutions. […]

| Structure (SMILES) | Visual Weed Control (%) - 19 DAA FIMMI Obs ([1]; 190 gai/ha) | Visual Weed Control (%) - 21 DAA SCPJU Obs ([2]; 22.5 gai/ha) | Visual Weed Control (%) - 21 DAA SCPJU Obs ([2]; 45 gai/ha) | Visual Weed Control (%) - 19 DAA FIMMI Obs ([1]; 24 gae/ha) | Visual Weed Control (%) - 21 DAA SCPJU Obs ([2]; 2.19 gae/ha) |
| --- | --- | --- | --- | --- | --- |
| CCCCOC(=O)[C@@H](C)Oc1ccc(Oc2ccc(C#N)cc2F)cc1 [Cyhalofop-butyl, butyl(2R)-2-[4-(4-cyano-2-fluorophenoxy)phenoxy]propanoate, reference compound] | 16% | 0% | 0% | – | – |
| COc1c(Cl)ccc(-c2nc(C(=O)OCc3ccccc3)c(Cl)c(N)c2F)c1F [Compound A Benzyl Ester, benzyl ester of 4-amino-3-chloro-5-fluoro-6-(4-chloro-2-fluoro-3-methoxy-phenyl)pyridine-2-carboxylic acid] | – | – | – | 39% | 77% |
